Our source for the MIC values is patent US7279494B2, “Antimicrobial [3.1.0] bicyclohexylphenyl-oxazolidinone derivatives and analogues” (Pfizer Inc., priority 2003, dated 2007).

In brackets after ≈: the same amount, converted by molar mass.

Assay type in all cases: cell-based
One assay deals with S. aureus UC9213. Description: MIC by standard agar dilution, S. aureus UC9213. The settings on record: Staphylococcus aureus, UC9213, Mueller Hinton agar, incubated overnight at 35° C. The procedure, abridged: (§1)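 Agar dilution MIC: 2-fold serial compound dilutions in Mueller Hinton agar, spot-inoculated with ~10^4–10^5 cells from 0.5 McFarland suspensions diluted 1:20 in TSB. Incubated overnight at 35 °C; MIC (μg/mL) taken as lowest concentration preventing visible growth.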
On the technique in general: In agar dilution, organisms are placed on agar that contains the substance at set levels.

The subject of another assay is S. pneumoniae UC9912. Nature of the assay: MIC by standard agar dilution, S. pneumoniae UC9912. Conditions: Streptococcus pneumoniae, UC9912, Mueller Hinton agar, incubated overnight at 35° C. The procedure, abridged: as §1
A further assay relates to H. influenzae 30063. Nature of the assay: MIC by standard agar dilution, H. influenzae 30063. Conditions: Haemophilus influenzae, 30063, agar dilution, Mueller Hinton agar, incubated overnight at 35° C.; read-out: H. influenzae 30063 MIC. In outline:
as §1

In the case of `CCC(=O)NC[C@H]1CN(c2cc(F)c([C@H]3[C@@H]4C[S+]([O-])C[C@@H]43)c(F)c2)C(=O)O1` (stereo partly drawn) [Example 58, N-[((5S)-3-{3,5-difluoro-4-[exo-(1R,5S)-3-oxido-3-thiabicyclo[3.1.0]hex-6-yl]phenyl}-2-oxo-1,3-oxazolidin-5-yl)methyl]propanamide], the results for the MIC against S. aureus UC9213, in the assay with S. pneumoniae UC9912 and with H. influenzae 30063 were 1 µg/mL (≈ 2.51 µM), 1 µg/mL (≈ 2.51 µM) and 2 µg/mL (≈ 5.02 µM), respectively.
Regarding `CCC(=O)NC[C@H]1CN(c2cc(F)c([C@H]3[C@@H]4CS(=O)(=O)C[C@@H]43)c(F)c2)C(=O)O1` [Example 59, N-[((5S)-3-{3,5-difluoro-4-[exo-(1R,5S)-3,3-dioxido-3-thiabicyclo[3.1.0]hex-6-yl]phenyl}-2-oxo-1,3-oxazolidin-5-yl)methyl]propanamide], the MIC with S. aureus UC9213 amounted to 1 µg/mL (≈ 2.41 µM); with S. pneumoniae UC9912, 1 µg/mL (≈ 2.41 µM); in the assay on H. influenzae 30063, 4 µg/mL (≈ 9.65 µM).
Regarding `CC(F)(F)C(=O)NC[C@H]1CN(c2cc(F)c([C@H]3[C@@H]4CS(=O)(=O)C[C@@H]43)c(F)c2)C(=O)O1` [Example 60, 2,2-difluoro-N-[((5S)-3-{3,5-difluoro-4-[exo-(1R,5S)-3,3-dioxido-3-thiabicyclo[3.1.0]hex-6-yl]phenyl}-2-oxo-1,3-oxazolidin-5-yl)methyl]propanamide], the MIC against S. aureus UC9213 turned out to be 8 µg/mL (≈ 17.8 µM); in the assay on S. pneumoniae UC9912, 2 µg/mL (≈ 4.44 µM); with H. influenzae 30063 it was 16 µg/mL (≈ 35.5 µM).
As to `O=C(NC[C@H]1CN(c2cc(F)c([C@H]3[C@@H]4C[S+]([O-])C[C@@H]43)c(F)c2)C(=O)O1)C1CC1` (stereo partly drawn) [Example 61, N-[((5S)-3-{3,5-difluoro-4-[exo-(1R,5S)-3-oxido-3-thiabicyclo[3.1.0]hex-6-yl]phenyl}-2-oxo-1,3-oxazolidin-5-yl)methyl]cyclopropanecarboxamide], the MIC with S. aureus UC9213 is 2 µg/mL (≈ 4.87 µM); in the assay on S. pneumoniae UC9912, 1 µg/mL (≈ 2.44 µM); in the assay on H. influenzae 30063 it was 8 µg/mL (≈ 19.5 µM).
The matching figures for `O=C(NC[C@H]1CN(c2cc(F)c([C@H]3[C@@H]4CS(=O)(=O)C[C@@H]43)c(F)c2)C(=O)O1)C1CC1` [Example 62]: 4 µg/mL (≈ 9.38 µM), 1 µg/mL (≈ 2.34 µM) and 8 µg/mL (≈ 18.8 µM).
Take `CCC(=O)NC[C@H]1CN(c2cc(F)c([C@H]3[C@@H]4CN(C(N)=O)C[C@@H]43)c(F)c2)C(=O)O1` [Example 63, exo-(1R,5S)-6-(4-{(5S)-5-[(propanoylamino)methyl]-2-oxo-1,3-oxazolidin-3-yl}-2,6-difluorophenyl)-3-azabicyclo[3.1.0]hexane-3-carboxamide]: the MIC worked out at 2 µg/mL (≈ 4.9 µM) in the assay with S. aureus UC9213, 1 µg/mL (≈ 2.45 µM) in the assay with S. pneumoniae UC9912 and 8 µg/mL (≈ 19.6 µM) in the assay on H. influenzae 30063.
For `CCC(=O)NC[C@H]1CN(c2cc(F)c([C@H]3[C@@H]4CN(C(=O)CO)C[C@@H]43)c(F)c2)C(=O)O1` [Example 64, N-[((5S)-3-{3,5-difluoro-4-[exo-(1R,5S)-3-glycoloyl-3-azabicyclo[3.1.0]hex-6-yl]phenyl]-2-oxo-1,3-oxazolidin-5-yl)methyl]propanamide], the MIC against S. aureus UC9213 stood at 4 µg/mL (≈ 9.45 µM); with S. pneumoniae UC9912, 2 µg/mL (≈ 4.72 µM); in the assay with H. influenzae 30063, 8 µg/mL (≈ 18.9 µM).
Take `NC(=O)N1C[C@@H]2[C@H](C1)[C@H]2c1c(F)cc(N2C[C@H](Cn3ccnn3)OC2=O)cc1F` [Example 65, exo-(1R,5S)-6-{2,6-difluoro-4-[(5R)-2-oxo-5-(1H-1,2,3-triazol-1-ylmethyl)-1,3-oxazolidin-3-yl]phenyl}-3-azabicyclo[3.1.0]hexane-3-carboxamide]: the MIC with S. aureus UC9213 came out at 2 µg/mL (≈ 4.95 µM); against S. pneumoniae UC9912 it was 2 µg/mL (≈ 4.95 µM); with H. influenzae 30063, 16 µg/mL (≈ 39.6 µM).
Take `O=C(CO)NC[C@H]1CN(c2ccc([C@H]3[C@@H]4C[S+]([O-])C[C@@H]43)c(F)c2)C(=O)O1` (stereo partly drawn) [Example 66, N-[((5S)-3-{3-fluoro-4-[exo-(1R,5S)-3-oxido-3-thiabicyclo[3.1.0]hex-6-yl]phenyl}-2-oxo-1,3-oxazolidin-5-yl)methyl]-2-hydroxyacetamide]: the MIC was determined as 4 µg/mL (≈ 10.5 µM) in the assay with S. aureus UC9213, 2 µg/mL (≈ 5.23 µM) against S. pneumoniae UC9912 and 8 µg/mL (≈ 20.9 µM) in the assay on H. influenzae 30063.
`O=C(CO)NC[C@H]1CN(c2ccc([C@H]3[C@@H]4CS(=O)(=O)C[C@@H]43)c(F)c2)C(=O)O1` [Example 67, N-[((5S)-3-{3-fluoro-4-{exo-(1R,5 S)-3,3-dioxido-3-thiabicyclo[3.1.0]hex-6-yl]phenyl}-2-oxo-1,3-oxazolidin-5-yl)methyl]-2-hydroxyacetamide]: the MIC with S. aureus UC9213, in the assay on S. pneumoniae UC9912 and in the assay with H. influenzae 30063 was 4 µg/mL (≈ 10 µM) each time.
Take `N#CCC(=O)NC[C@H]1CN(c2ccc([C@H]3[C@@H]4C[S+]([O-])C[C@@H]43)c(F)c2)C(=O)O1` (stereo partly drawn) [Example 68, 2-cyano-N-[((5S)-3-{3-fluoro-4-[exo-(1R,5S)-3-oxido-3-thiabicyclo[3.1.0]hex-6-yl]phenyl}-2-oxo-1,3-oxazolidin-5-yl)methyl]acetamide]: the MIC came to 4 µg/mL (≈ 10.2 µM) against S. aureus UC9213, 1 µg/mL (≈ 2.55 µM) against S. pneumoniae UC9912 and 8 µg/mL (≈ 20.4 µM) with H. influenzae 30063.
The matching figures for `N#CCC(=O)NC[C@H]1CN(c2ccc([C@H]3[C@@H]4CS(=O)(=O)C[C@@H]43)c(F)c2)C(=O)O1` [Example 69, 2-cyano-N-[((5S)-3-{3-fluoro-4-[exo-(1R,5S)-3,3-dioxido-3-thiabicyclo[3.1.0]hex-6-yl]phenyl}-2-oxo-1,3-oxazolidin-5-yl)methyl]acetamide]: 4 µg/mL (≈ 9.82 µM), 4 µg/mL (≈ 9.82 µM) and 8 µg/mL (≈ 19.6 µM).
Turning to `N#CCC(=O)NC[C@H]1CN(c2cc(F)c([C@H]3[C@@H]4C[S+]([O-])C[C@@H]43)c(F)c2)C(=O)O1` (stereo partly drawn) [Example 70, 2-cyano-N-[((5S)-3-{3,5-difluoro-4-[exo-(1R,5S)-3-oxido-3-thiabicyclo[3.1.0]hex-6-yl]phenyl}-2-oxo-1,3-oxazolidin-5-yl)methyl]acetamide], the MIC in the assay with S. aureus UC9213 came out at 2 µg/mL (≈ 4.89 µM); against S. pneumoniae UC9912, 1 µg/mL (≈ 2.44 µM); in the assay with H. influenzae 30063, 4 µg/mL (≈ 9.77 µM).
With `N#CCC(=O)NC[C@H]1CN(c2cc(F)c([C@H]3[C@@H]4CS(=O)(=O)C[C@@H]43)c(F)c2)C(=O)O1` [Example 71, 2-cyano-N-[((5S)-3-{3,5-difluoro-4-[exo-(1R,5S)-3,3-dioxide-3-thiabicyclo[3.1.0]hex-6-yl]phenyl}-2-oxo-1,3-oxazolidin-5-yl)methyl]acetamide], the MIC in the assay with S. aureus UC9213 is 4 µg/mL (≈ 9.4 µM); in the assay with S. pneumoniae UC9912 it was 2 µg/mL (≈ 4.7 µM); with H. influenzae 30063, 4 µg/mL (≈ 9.4 µM).
Regarding `CC(=O)NC[C@H]1CN(c2ccc([C@H]3[C@@H]4CN(C(=N)N)C[C@@H]43)c(F)c2)C(=O)O1` [Example 72, N-{[(5S)-3-(4-{exo-(1R,5S)-3-[amino(imino)methyl]-3-azabicyclo[3.1.0]hex-6-yl}-3-fluorophenyl)-2-oxo-1,3-oxazolidin-5-yl]methyl}acetamide], the MIC in the assay on S. aureus UC9213 stood at 32 µg/mL (≈ 85.2 µM); in the assay on S. pneumoniae UC9912 it was 8 µg/mL (≈ 21.3 µM); in the assay on H. influenzae 30063 it was 64 µg/mL (≈ 170 µM).
Consider `CN/C(=N\C#N)N1C[C@@H]2[C@H](C1)[C@H]2c1ccc(N2C[C@H](CNC(C)=O)OC2=O)cc1F` [Example 73, exo-(1R,5S)-N′-cyano-6-(4-{(5S)-5-[(acetylamino)methyl]-2-oxo-1,3-oxazolidin-3-yl}-2-fluorophenyl)-N-methyl-3-azabicyclo[3.1.0]hexane-3-carboximidamide], for which the results for the MIC against S. aureus UC9213, against S. pneumoniae UC9912 and with H. influenzae 30063 were 2 µg/mL (≈ 4.83 µM), 1 µg/mL (≈ 2.41 µM) and 4 µg/mL (≈ 9.65 µM), respectively.
